Converted amounts (≈) assume the structure as drawn.
Columns and labels:
Assay type in all cases: cell-based
[1] = tested on: K. pneumoniae; assay: Broth dilution MIC determination (CLSI) against K. pneumoniae strains; conditions: for MIC K. pneumoniae ATCC10031: ATCC10031, Strain No. MP-14
Excerpt: (§1) Minimum inhibitory concentrations (MICs) for macrolides described herein have been determined for unique strains of S. aureus, S. pneumoniae, S. pyogenes, E. faecalis, E. coli, A. baumannii, K. pneumoniae, P. aeruginosa, and H. influenzae, including several multidrug-resistant strains, with a special focus on macrolide resistant mechanisms. Azithromycin and solithromycin were included as control compounds. CLSI standard procedures for broth dilution MIC determination were used.

[2] = tested on: S. aureus; assay: Broth dilution MIC determination (CLSI) against S. aureus strains; conditions: for MIC S. aureus ATCC29213: ATCC29213, Strain No. MP-12; for MIC S. aureus ATCCBAA-977: ATCCBAA-977, Strain No. MP-17; for MIC S. aureus (MRSA) GISA USA600: GISA USA600, Strain No. MP-619 UNT-120; for MIC S. aureus (MRSA) ST-228 cErm: Strain No. MP-513; for MIC S. aureus (MRSA) USA100: USA100, Strain No. MP-618 UNT-096; for MIC S. aureus (MRSA) USA300: USA300, Strain No. MP-549; for MIC S. aureus (MRSA) ermA phenotype: Strain No. MP-620 UNT-146
Excerpt: as §1, with “used. Data for exemplary compounds described herein is shown in Tables M1-M7 and in Tables N1-N4.” for “used.”

[3] = tested on: P. aeruginosa; assay: Broth dilution MIC determination (CLSI) against P. aeruginosa strains; conditions: for MIC P. aeruginosa ATCC27853: ATCC27853, Strain No. MP-3; for MIC P. aeruginosa PAO1: PAO1, Strain No. MP-7; for MIC P. aeruginosa PAO1:mex: Strain No. MP-8
Excerpt: as §1, with “used. Data for exemplary compounds described herein is shown in Tables M1-M7 and in Tables N1-N4.” for “used.”

[4] = tested on: A. baumannii; assay: Broth dilution MIC determination (CLSI) against A. baumannii strains; conditions: for MIC A. baumannii ATCC19606: ATCC19606, Strain No. MP-15
Excerpt: as §1, with “used. Data for exemplary compounds described herein is shown in Tables M1-M7 and in Tables N1-N4.” for “used.”

[5] = tested on: E. coli; assay: Broth dilution MIC determination (CLSI) against E. coli strains; conditions: for MIC E. coli ATCC25922: ATCC25922, Strain No. MP-4; for MIC E. coli ATCC25922:tolC: Strain No. MP-9; for MIC E. coli clinical: Strain No. MP541; for MIC E. coli clinical-cErm: Strain No. MP532
Excerpt: as §1, with “used. Data for exemplary compounds described herein is shown in Tables M1-M7 and in Tables N1-N4.” for “used.”

[6] = tested on: S. pyogenes; assay: Broth dilution MIC determination (CLSI) against S. pyogenes strains; conditions: for MIC S. pyogenes ATCC19615: ATCC19615, Strain No. MP-19; for MIC S. pyogenes mac resistant: Strain No. MP-625 UNT-014
Excerpt: as §1, with “used. Data for exemplary compounds described herein is shown in Tables M1-M7 and in Tables N1-N4.” for “used.”

[7] = tested on: S. pneumoniae; assay: Broth dilution MIC determination (CLSI) against S. pneumoniae strains; conditions: for MIC S. pneumoniae ATCC49619: ATCC49619, Strain No. MP-21
Excerpt: as §1, with “used. Data for exemplary compounds described herein is shown in Tables M1-M7 and in Tables N1-N4.” for “used.”

[8] = tested on: E. faecalis; assay: Broth dilution MIC determination (CLSI) against E. faecalis strains; conditions: for MIC E. faecalis ATCC29212: ATCC29212, Strain No. MP-24; for MIC E. faecalis van resistant: Strain No. UNT-039
Excerpt: as §1, with “used. Data for exemplary compounds described herein is shown in Tables M1-M7 and in Tables N1-N4.” for “used.”

[9] = K. pneumoniae ATCC 10031, strain MP-14 (Table N4)
[10] = K. pneumoniae Clinical, strain MP-548 (Table N4)
[11] = K. pneumoniae Clinical-MDR, strain MP-546 (Table N4)
[12] = S. aureus ATCC29213, strain MP-12 (Table N4)
[13] = S. aureus BAA 977 iErm, strain MP-17 (Table N4)
[14] = S. aureus Clinical-cErm, strain MP-513 (Table N4)
[15] = S. aureus USA300-msr(a), strain MP-549 (Table N4)
[16] = P. aeruginosa ATCC27853, strain MP-3 (Table N4)
[17] = P. aeruginosa PAO1, strain MP-7 (Table N4)
[18] = P. aeruginosa mex-oprM-deletion, strain MP-8 (Table N4)
[19] = A. baumannii ATCC 19606, strain MP-15 (Table N4)
[20] = A. baumannii Clinical-AZT low, strain MP-577 (Table N4)
[21] = A. baumannii Clinical-MDR, strain MP-576 (Table N4)
[22] = E. coli ATCC25922, strain MP-4 (Table N4)
[23] = E. coli Clinical, strain MP-541 (Table N4)
[24] = E. coli clinical-cErmB, strain MP-532 (Table N4)
[25] = E. coli tolC, strain MP-9 (Table N4)

`CCC1OC(=O)C(C)C(=O)C(C)C(OC2OC(C)CC(N(C)CCO)C2O)C(C)(OC)CC(C)CNC(C)C2N(CCCCn3cc(-c4cccc(N)c4)nn3)C(=O)OC12C` (stereo not shown) [FSM-120418] was tested, and the MIC [1, 9] was 8 µg/mL (≈ 9.32 µM), the MIC [1, 10] was 64 µg/mL (≈ 74.6 µM) and the MIC [1, 11] was greater than 64 µg/mL. For the same compound, the MIC [2, 12] was 16 µg/mL (≈ 18.6 µM), the MIC [2, 13] was 16 µg/mL (≈ 18.6 µM) and the MIC [2, 14] was greater than 64 µg/mL. It also gave an MIC [2, 15] of 16 µg/mL (≈ 18.6 µM), an MIC [3, 16] greater than 64 µg/mL and an MIC [3, 17] greater than 64 µg/mL. For the same compound, the MIC [3, 18] was 32 µg/mL (≈ 37.3 µM), the MIC [4, 19] was 16 µg/mL (≈ 18.6 µM) and the MIC [4, 20] was 32 µg/mL (≈ 37.3 µM). For the same compound, the MIC [4, 21] was greater than 64 µg/mL, the MIC [5, 22] was 8 µg/mL (≈ 9.32 µM) and the MIC [5, 23] was 8 µg/mL (≈ 9.32 µM). It also gave an MIC [5, 24] greater than 64 µg/mL and an MIC [5, 25] of 1 µg/mL (≈ 1.17 µM).
For `CCC1OC(=O)C(C)C(=O)C(C)C(OC2OC(C)CC(n3ccnc3)C2O)C(C)(OC)CC(C)CNC(C)C2N(CCCCn3cc(-c4cccc(N)c4)nn3)C(=O)OC12C` (stereo not shown) [FSM-120394], the “MIC S. pyogenes ATCC19615” value [6] was 0.5 µg/mL (≈ 0.588 µM), the “MIC S. pyogenes mac resistant” value [6] was 4 µg/mL (≈ 4.7 µM) and the “MIC K. pneumoniae ATCC10031” value [1] was 16 µg/mL (≈ 18.8 µM). The “MIC K. pneumoniae clinical” value ([1]; Strain No. MP546) was greater than 64 µg/mL, the “MIC K. pneumoniae clinical” value ([1]; Strain No. MP548) was greater than 64 µg/mL and the “MIC S. aureus ATCC29213” value [2] was greater than 64 µg/mL. For the same compound, the “MIC S. aureus ATCCBAA-977” value [2] was greater than 64 µg/mL, the “MIC S. aureus (MRSA) GISA USA600” value [2] was greater than 64 µg/mL and the “MIC S. aureus (MRSA) ST-228 cErm” value [2] was greater than 64 µg/mL. For the same compound, the “MIC S. aureus (MRSA) USA100” value [2] was greater than 64 µg/mL, the “MIC S. aureus (MRSA) USA300” value [2] was greater than 64 µg/mL and the “MIC S. aureus (MRSA) ermA phenotype” value [2] was greater than 64 µg/mL. For the same compound, the “MIC P. aeruginosa ATCC27853” value [3] was greater than 64 µg/mL, the “MIC P. aeruginosa PAO1” value [3] was greater than 64 µg/mL and the “MIC P. aeruginosa PAO1:mex” value [3] was greater than 64 µg/mL. The “MIC S. pneumoniae ATCC49619” value [7] was 0.5 µg/mL (≈ 0.588 µM), the “MIC S. pneumoniae mefA” value ([7]; Strain No. MP-626 UNT-038) was 0.5 µg/mL (≈ 0.588 µM) and the “MIC S. pneumoniae mefA” value ([7]; Strain No. MP-627 UNT-039) was 0.25 µg/mL (≈ 0.294 µM). The “MIC A. baumannii ATCC19606” value [4] was 64 µg/mL (≈ 75.2 µM), the “MIC A. baumannii clinical” value ([4]; Strain No. MP576) was greater than 64 µg/mL and the “MIC A. baumannii clinical” value ([4]; Strain No. MP577) was greater than 64 µg/mL. The “MIC E. faecalis ATCC29212” value [8] was 4 µg/mL (≈ 4.7 µM), the “MIC E. faecalis van resistant” value [8] was greater than 64 µg/mL and the “MIC E. coli ATCC25922” value [5] was greater than 64 µg/mL. The “MIC E. coli ATCC25922:tolC” value [5] was 16 µg/mL (≈ 18.8 µM), the “MIC E. coli clinical” value [5] was greater than 64 µg/mL and the “MIC E. coli clinical-cErm” value [5] was greater than 64 µg/mL.
For `CCC1OC(=O)C(C)C(=O)C(C)C(OC2OC(C)CC(N3CCOCC3)C2O)C(C)(OC)CC(C)CNC(C)C2N(CCCCn3cc(-c4cccc(N)c4)nn3)C(=O)OC12C` (stereo not shown) [FSM-120367], the “MIC S. pyogenes ATCC19615” value [6] was 8 µg/mL (≈ 9.19 µM), the “MIC S. pyogenes mac resistant” value [6] was 64 µg/mL (≈ 73.6 µM) and the “MIC K. pneumoniae ATCC10031” value [1] was greater than 64 µg/mL. For the same compound, the “MIC K. pneumoniae clinical” value ([1]; Strain No. MP546) was greater than 64 µg/mL, the “MIC K. pneumoniae clinical” value ([1]; Strain No. MP548) was greater than 64 µg/mL and the “MIC S. aureus ATCC29213” value [2] was greater than 64 µg/mL. For the same compound, the “MIC S. aureus ATCCBAA-977” value [2] was greater than 64 µg/mL, the “MIC S. aureus (MRSA) GISA USA600” value [2] was greater than 64 µg/mL and the “MIC S. aureus (MRSA) ST-228 cErm” value [2] was greater than 64 µg/mL. For the same compound, the “MIC S. aureus (MRSA) USA100” value [2] was greater than 64 µg/mL, the “MIC S. aureus (MRSA) USA300” value [2] was greater than 64 µg/mL and the “MIC S. aureus (MRSA) ermA phenotype” value [2] was greater than 64 µg/mL. The “MIC P. aeruginosa ATCC27853” value [3] was greater than 64 µg/mL, the “MIC P. aeruginosa PAO1” value [3] was greater than 64 µg/mL and the “MIC P. aeruginosa PAO1:mex” value [3] was greater than 64 µg/mL. The “MIC S. pneumoniae ATCC49619” value [7] was 32 µg/mL (≈ 36.8 µM), the “MIC S. pneumoniae mefA” value ([7]; Strain No. MP-626 UNT-038) was 16 µg/mL (≈ 18.4 µM) and the “MIC S. pneumoniae mefA” value ([7]; Strain No. MP-627 UNT-039) was 16 µg/mL (≈ 18.4 µM). The “MIC A. baumannii ATCC19606” value [4] was greater than 64 µg/mL, the “MIC A. baumannii clinical” value ([4]; Strain No. MP576) was greater than 64 µg/mL and the “MIC A. baumannii clinical” value ([4]; Strain No. MP577) was greater than 64 µg/mL. For the same compound, the “MIC E. faecalis ATCC29212” value [8] was 64 µg/mL (≈ 73.6 µM), the “MIC E. faecalis van resistant” value [8] was greater than 64 µg/mL and the “MIC E. coli ATCC25922” value [5] was greater than 64 µg/mL. The “MIC E. coli ATCC25922:tolC” value [5] was greater than 64 µg/mL, the “MIC E. coli clinical” value [5] was greater than 64 µg/mL and the “MIC E. coli clinical-cErm” value [5] was greater than 64 µg/mL.
Work on `CCC1OC(=O)C(C)C(=O)C(C)C(OC2OC(C)CC(N(C)CCCS(C)(=O)=O)C2O)C(C)(OC)CC(C)CN(C)C(C)C2N(CCCCn3cc(-c4cccc(N)c4)nn3)C(=O)OC12C` (stereo not shown) [FSM-120421] yielded an MIC [1, 9] of 64 µg/mL (≈ 67.5 µM), an MIC [1, 10] greater than 64 µg/mL and an MIC [1, 11] greater than 64 µg/mL. The MIC [2, 12] was greater than 64 µg/mL, the MIC [2, 13] was greater than 64 µg/mL and the MIC [2, 14] was greater than 64 µg/mL. It also gave an MIC [2, 15] greater than 64 µg/mL, an MIC [3, 16] greater than 64 µg/mL and an MIC [3, 17] greater than 64 µg/mL. For the same compound, the MIC [3, 18] was greater than 64 µg/mL, the MIC [4, 19] was greater than 64 µg/mL and the MIC [4, 20] was greater than 64 µg/mL. For the same compound, the MIC [4, 21] was greater than 64 µg/mL, the MIC [5, 22] was greater than 64 µg/mL and the MIC [5, 23] was greater than 64 µg/mL. The MIC [5, 24] was greater than 64 µg/mL and the MIC [5, 25] was 64 µg/mL (≈ 67.5 µM).
